Experimental findings from patent publication US11083729B2, “Methods of treating cancer with small molecule NF-κB inhibitors” (ImmuneTarget, Inc., priority 2017, dated 2021) are described below.

The assay addresses T1, c-Rel protein (Homo sapiens, UniProt Q04864).
T1 sequence (Q04864 1-619): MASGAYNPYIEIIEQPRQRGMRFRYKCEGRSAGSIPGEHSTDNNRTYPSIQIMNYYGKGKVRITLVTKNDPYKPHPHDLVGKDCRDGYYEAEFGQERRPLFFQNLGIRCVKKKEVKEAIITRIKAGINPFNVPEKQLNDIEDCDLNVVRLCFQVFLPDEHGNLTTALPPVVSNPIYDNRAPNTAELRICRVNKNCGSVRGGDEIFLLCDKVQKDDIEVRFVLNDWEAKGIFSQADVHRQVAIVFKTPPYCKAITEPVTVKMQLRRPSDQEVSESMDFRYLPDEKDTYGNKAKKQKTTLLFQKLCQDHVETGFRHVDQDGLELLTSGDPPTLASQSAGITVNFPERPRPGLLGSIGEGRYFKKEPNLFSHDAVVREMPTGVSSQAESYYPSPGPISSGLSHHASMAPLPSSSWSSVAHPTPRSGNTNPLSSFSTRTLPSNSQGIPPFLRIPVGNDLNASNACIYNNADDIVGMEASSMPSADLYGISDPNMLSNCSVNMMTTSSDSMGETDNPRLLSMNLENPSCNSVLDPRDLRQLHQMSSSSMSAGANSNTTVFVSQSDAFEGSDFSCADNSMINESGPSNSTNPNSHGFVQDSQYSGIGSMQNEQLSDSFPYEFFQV
The assay is described as follows: Electrophoretic Mobility Shift Assay (EMSA), c-Rel binding to CD28RE oligonucleotide. Particulars: 10 nM c-Rel protein. On the procedure: DNA binding reaction (20 μL) was carried out in 1×DNA Binding Buffer (10 mM Tris, 40 mM NaCl, 1 mM EDTA, 4% glycerol) with 10 nM c-Rel protein and 0.5 ng phosphor-labeled CD28RE oligonucleotide for 10 minutes at room temperature in 96-well plates. Test compounds, in serial dilutions, were added into each well, and further incubated for 15 minutes before loading onto native 5% polyacrylamide gel. Electrophoresis proceeded for 2.5 hours at 160V. Radioactive signals were quantified using Phospho-Imager. IC50 of compounds of example 1 to 75 were determined by quantifying the intensity of Rel/NF-κB inhibition in EMSA using phospho-imager. An example of EMSA data of the present invention is shown for compound 6 in FIG. 2.
A general note: Mobility shift assays separate free from complexed probe on a gel.

A word on the IC50: it is the concentration that gives 50% inhibition. `COCCOCCOc1ccc2cc3c(=O)[nH]c(=O)nc-3oc2c1F` [compound 63]: the IC50 is less than 1000 nM.

As to `COCCOCCOc1cc2oc3nc(=O)[nH]c(=O)c-3cc2cc1Cl` [compound 64], the half-inhibitory concentration (IC50) is less than 1000 nM.

On to `COCCOCCOc1cc2oc3nc(=O)[nH]c(=O)c-3cc2cc1F` [compound 65], for which the IC50 was less than 1000 nM.

Turning to `COCCCCOc1ccc2cc3c(=O)[nH]c(=O)nc-3oc2c1Cl` [compound 66, 9-chloro-8-(4-methoxybutoxy)-2H-chromeno[2,3-d]pyrimidine-2,4(3H)-dione], the IC50 was less than 1000 nM.

Regarding `COCCCCOc1ccc2cc3c(=O)[nH]c(=O)nc-3oc2c1` [compound 67], the 50% inhibitory concentration (IC50) is less than 1000 nM.

As for `COCCCCOc1ccc2cc3c(=O)[nH]c(=O)nc-3oc2c1F` [compound 68], the IC50 is less than 1000 nM.

As to `COCCCCOc1cc2oc3nc(=O)[nH]c(=O)c-3cc2cc1Cl` [compound 69], the IC50 is less than 1000 nM.

As to `COCCCCOc1cc2oc3nc(=O)[nH]c(=O)c-3cc2cc1F` [compound 70], the IC50 is less than 1000 nM.

With `COCCOCCCOc1ccc2cc3c(=O)[nH]c(=O)nc-3oc2c1` [compound 71], the IC50 is less than 1000 nM.

Regarding `COCCOCCCOc1ccc2cc3c(=O)[nH]c(=O)nc-3oc2c1Cl` [compound 72], the IC50 was less than 1000 nM.

With `COCCOCCCOc1ccc2cc3c(=O)[nH]c(=O)nc-3oc2c1F` [compound 73], the half-maximal inhibitory concentration (IC50) was less than 1000 nM.

For the compound `COCCOCCCOc1cc2oc3nc(=O)[nH]c(=O)c-3cc2cc1Cl` [compound 74], the IC50 is less than 1000 nM.

On to `COCCOCCCOc1cc2oc3nc(=O)[nH]c(=O)c-3cc2cc1F` [compound 75, 7-fluoro-8-(3-(2-methoxyethoxy)propoxy)-2H-chromeno[2,3-d]pyrimidine-2,4(3H)-dione], for which the IC50 was less than 1000 nM.
